The numbers were not newly measured in US10953021B2, “Topical compositions of flunisolide and methods of treatment” (Lupin Limited, priority 2013, dated 2021), which cites them from elsewhere.

For data set [1] the following is noted: animal anti-inflammatory assays, versus cortisol.
The conditions of data set [2]: McKenzie skin blanching test, versus dexamethasone.

With `CC1(C)O[C@@H]2C[C@H]3[C@@H]4C[C@H](F)C5=CC(=O)C=C[C@]5(C)[C@H]4[C@@H](O)C[C@]3(C)[C@]2(C(=O)CO)O1` [Flunisolide, 6α-fluoro-11β, 21-dihydroxy-16α,17α-(isopropylidenedioxy)pregna-1,4-diene-3,20-dione], in data set [1], the “anti-inflammatory potency relative to cortisol” value is “several hundred times more potent than cortisol”. Moreover, in data set [2], the “anti-inflammatory effects relative to dexamethasone” value is given as “several hundred times more potent than dexamethasone”.
